Data published in US9216995B2, “Pyridone derivative having integrase inhibitory activity” (SHIONOGI & CO., LTD., priority 2010, dated 2015).

Key:
[1] = test system: HIV; test: Anti-HIV activity (HeLa-CD4 cells, β-gal reporter assay); format: cell-based; conditions: Human immunodeficiency virus 1, 72 h, concentration to inhibit HIV infection by 50%, 3 days, luminescence
Protocol: A HeLa-CD4 cell suspension (2.5×10^4 cell/well) was dispensed to each well on an assay plate. After incubating at 37° C. for 1 hour under condition of 5% CO2, a solution to dilute a compound (50 μL) was added to each well (provided that a cell control was excluded). A culture solution (50 μL) was added to a well of the cell control. The plate was incubated at 37° C. for 3 days under condition of 5% CO2.
After the culture solution was aspirated from each well, 100 μL of a cell lysate of the reporter assay kit—β gal—was added to all wells, and then the plate was frozen at −80° C. to completely lyse cells. The plate was left at room temperature to unfreeze the cell lysate, it was centrifuged at 1200 rpm for 5 minutes at room temperature (Kubota centrifuge KR-600P). 20 μL of the supernatant was dispensed from each well to 96-well black plate, 100 μL of a luminescent reagent of the reporter assay kit—β gal—was added to each well. The plate was incubated at room temperature for 1 hour. The luminescence intensity from each well was measured by MicroBeta TRILUX instrument (PerkinElmer). A concentration (conc.) to inhibit HIV infection by 50% was calculated to obtain an EC50 value.

[2] = biological target: HIV integrase (Human immunodeficiency virus type 1 group M subtype B, UniProt P04585); test: Integrase inhibitory activity (strand transfer ELISA on streptavidin plates); format: biochemical; conditions: integrase inhibition rate, absorbance OD 405 nm
Protocol: By the same method as that described in Experimental Example 1 of Patent Document 2, a substrate DNA solution (2 μmol/μl) and a target DNA solution (5 μmol/μl) were prepared. […] Each sequence of a substrate DNA and a target DNA is as described in the same Experimental Example.
(2) Measurement of Inhibition Rate (IC50 Value)
Onto Immobilizer—Streptavidin Plates (manufactured by NUNC) was added 50 μl of a substrate DNA solution (2 μmol/μl). After adsorbing at room temperature for 60 minutes under shaking, it was washed with a phosphate buffer two times.
Then, to each well prepared as described above were added 12 μl of a buffer (composition: 150 mM MOPS (pH7.2), 75 mM MnCl2, 50 mM 2-mercaptoethanol, 25% glycerol, 500 μg/ml bovine serum albumin-fraction V), and 51 μl of a reaction solution prepared from 39 μl of distilled water. Then, 9 μl of an integrase solution (30 μmol) was added, and the mixture was mixed well. To a well as a negative control (NC) was added 9 μl of a diluting solution (composition: 20 mM MOPS (pH 7.2), 400 mM potassium glutamate, 1 mM EDTA, 0.1% NP-40, 20% glycerol, 1 mM DTT, 4 M urea), and this was mixed well using a plate mixer.
After the plate was incubated at 30° C. for 60 minutes, the reaction solution was discarded, followed by washing with 200 μl of a washing buffer (composition: 150 mM MOPS (pH 7.2), 50 mM 2-mercaptoethanol, 25% glycerol, 500 μg/ml bovine serum albumin-fraction V) three times.
Then, to each well were added 12 μl of a buffer (composition: 150 mM MOPS (pH 7.2), 75 mM MgCl2, 50 mM 2-mercaptoethanol, 25% glycerol, 500 μg/ml bovine serum albumin-fraction V), and 53 μl of a reaction solution prepared from 41 μl of distilled water. Further, 6 μl of a solution of a test compound in DMSO was added to each well, and 6 μl of DMSO was added to a well as a positive control (PC), followed by mixing well using a plate mixer. After the plate was incubated at 30° C. for 60 minutes, 1 μl of a target DNA (5 μmol/μl) was added, and this was mixed well using a plate mixer.
After each plate was incubated at 30° C. for 10 minutes, the reaction solution was discarded, followed by washing with a phosphate buffer two times. Then, an anti-digoxigenin antibody labeled with alkaline phosphatase (sheep Fab fragment: manufactured by Boehringer) was diluted 2000-fold with an antibody diluting solution, 100 μl of the diluent was added to bind at 30° C. for 1 hour, and this was washed successively with a phosphate buffer containing 0.05% Tween 20 two times, and a phosphate buffer two times. […]
C abs.: Absorbance of well of compound
NC abs.: Absorbance of NC
PC abs.: Absorbance of PC

| Structure (SMILES) | EC50 [1] [µM] | IC50 [2] [µM] |
| --- | --- | --- |
| C[C@@H]1CCO[C@H]2Cn3cc(C(=O)NCc4nccs4)c(=O)c(O)c3C(=O)N12 [Compound A-12] | 0.032 | – |
| C[C@@H]1CCO[C@H]2Cn3cc(C(=O)NC(c4ccccc4)c4ccccc4)c(=O)c(O)c3C(=O)N12 [Compound A-15] | 0.016 | – |
| C[C@@H]1CCO[C@H]2Cn3cc(C(=O)NCc4cc5ccccc5s4)c(=O)c(O)c3C(=O)N12 [Compound A-20] | 0.011 | 0.0284 |
| C[C@@H]1CCO[C@H]2Cn3cc(C(=O)NC[C@@H]4CCCO4)c(=O)c(O)c3C(=O)N12 [Compound A-21] | 0.025 | – |
| C[C@@H]1CCO[C@H]2Cn3cc(C(=O)NNC(=O)c4ccc(F)cc4)c(=O)c(O)c3C(=O)N12 [Compound A-38] | 0.015 | – |
| C[C@@H]1CCO[C@H]2Cn3cc(C(=O)NCc4cccs4)c(=O)c(O)c3C(=O)N12 [Compound A-39] | 0.011 | 0.027 |
| C[C@@H]1CCO[C@H]2Cn3cc(C(=O)NCC4CCCCCC4)c(=O)c(O)c3C(=O)N12 [Compound A-50] | 0.032 | 0.0135 |
| C[C@@H]1CCO[C@H]2Cn3cc(C(=O)NCc4ccsc4)c(=O)c(O)c3C(=O)N12 [Compound A-56] | 0.0064 | 0.0297 |

Now from value to compound, other results behind:

| EC50 [1] [µM] | Structure (SMILES) | IC50 [2] [µM] |
| --- | --- | --- |
| 0.042 | C[C@@H]1CCO[C@H]2Cn3cc(C(=O)NCc4ccoc4)c(=O)c(O)c3C(=O)N12 [Compound A-41] | – |
| 0.046 | C[C@@H]1CCO[C@H]2Cn3cc(C(=O)NCCC4CCCCC4)c(=O)c(O)c3C(=O)N12 [Compound A-42] | – |
| 0.022 | C[C@@H]1CCO[C@H]2Cn3cc(C(=O)NCCc4cccs4)c(=O)c(O)c3C(=O)N12 [Compound A-65] | – |
| 0.038 | C[C@@H]1CCO[C@H]2Cn3cc(C(=O)NCc4nc5ccccc5s4)c(=O)c(O)c3C(=O)N12 [Compound A-66] | – |
